# Assays:
# [1] = system: LLC1 challenge tumor; experiment: Challenge assay in LLC1 tumor-bearing mice; format: in vivo; settings: 50,000 ppm NO intra-tumorally for 10 minutes; 9 days post challenge tumor inoculation
# Protocol: Challenge tumor inoculation: Up to 21 days after gas treatment was applied to the primary tumor, the appropriate cancer cell suspensions were prepared as described herein and inoculation of cells was repeated on the contralateral flank of the mice. Administration was performed as soon as possible following cell suspension preparation and after manual shaking prior to withdrawal of the cell suspension.
# The percentage of challenge tumor take was monitored 2-3 times a week by taking a look at the inoculated site and touching this area to look for small tumors that are not yet visible. Naïve mice inoculated with tumor cells for the first time served as an internal control.
# gNO local administration was tested in a Challenge assay, as depicted in FIG. 15A, in order to evaluate whether treating the primary tumor by gNO based ablation stimulates an anti-tumor immune response that results in rejection of a secondary tumor inoculation. A secondary, “challenge”, tumor cells inoculation also serves as a metastasis model.
# LLC1 tumor-bearing mice were treated with 50,000 ppm NO administered intra-tumorally by a 23G hypodermic needle for 10 minutes. Up to 2 weeks post the first gas treatment all gas-treated mice were re-inoculated with 2.5×10^5 LLC1 cells suspended in 100 μL HBSS into the left flank. Naïve mice inoculated with 5×10^5 CT-26 cells served as an internal control for cells' quality.
# [2] = system: B16.F10 cells; experiment: XTT viability of B16.F10 cells after gas exposure in chamber; format: cell-based; settings: 10,000 ppm-25,000 ppm gNO for 3-15 minutes
# Protocol: In vitro systems: One system involves a direct exposure of cancer cells to gNO in 96-well plate. Gaseous NO at 150 ppm-50,000 ppm was delivered at 0.3 LPM for 10 seconds—3 minutes. In another system, cancer cells were exposed to gNO in a box made of acrylic glass. Gaseous NO at 10,000-50,000 ppm was delivered at 0.9 LPM for 10 seconds—15 minutes.
# The exposure of the cancer cells to gNO was done after removing the cell culture medium.
# Immediately after gas exposure, cell culture medium was added, and the cells were incubated at a 37° C. and 5% CO2 incubator over-night. To test cell viability, XTT assay and Annexin V-Propidium Iodide assays were performed, according to known protocols.
# B16.F10 cells were prepared in DMEM medium and suspended in 96-well plates. The plates were placed inside an approx. 2 liter exposure chamber. The plates were exposed to the gas by filling the chamber with gNO for 10 seconds, or 1, 3, 9 or 15 minutes. After exposure, the plates were placed in a 5% CO2, 37° C. incubator for an overnight incubation and the viability of the cells was tested by XTT assay.
# [3] = pH of cell suspension after ex-vivo gNO treatment of tumor cells; format: physicochemical; settings: ex-vivo treatment of tumor cells with gNO
# [4] = system: CT-26 cells; experiment: XTT viability of CT-26 cells after direct gas exposure in 96-well plate; format: cell-based; settings: Mus musculus, CT26; 50,000 ppm gNO for 10, 60, or 180 seconds; XTT after 24 hours
# Text: Tumor celllines: The mouse colon carcinoma cell line, CT26WT, was cloned from CT26, an N-nitroso-N-methylurethane-induced, undifferentiated colon carcinoma cell line. The mouse mammary tumor cell line, 4T1, is a 6-thioguanine resistant cell line. When injected into BALB/c mice, 4T1 spontaneously produces highly metastatic tumors that can metastasize to the lung, liver, lymph nodes and brain while the primary tumor is growing in situ. […] Panc 02.03 is a pancreatic adenocarcinoma epithelial cell line derived in 1995 from a primary tumor removed from the head-of-the-pancreas of […] with pancreatic adenocarcinoma. CT26, 4T1 and Panc 02.03 cell lines were grown in RPMI based media (ATCC 30-2001) supplemented with fetal bovine serum and pen-strep (both from Biological Industries). The LLC1/LU2 cell line was grown in DMEM based media (ATCC 30-2002) supplemented with fetal bovine serum and pen-strep (Biological industries). The B16.F10 cell lines was grown in DMEM based media (ATCC 30-2002) supplemented with fetal bovine serum and pen-strep (Biologicalindustries).
# In vitro systems: One system involves a direct exposure of cancer cells to gNO in 96-well plate. Gaseous NO at 150 ppm-50,000 ppm was delivered at 0.3 LPM for 10 seconds—3 minutes. In another system, cancer cells were exposed to gNO in a box made of acrylic glass. […]
compound,measurement,setting,value
"[N]=O [gNO, nitric oxide]",development of a secondary (challenge) LLC1 tumor,[1],none of the gas-treated mice developed a secondary tumor
same,viability of B16.F10 cells,[2],less than 5%
same,pH of cell suspension comprising gNO-treated tumor cells,[3],acidic pH
same,viability at 50000 ppm,[4],~1%
